Results: ChEMBL document CHEMBL1146515, “Four new triterpenoids from Maytenus ilicifolia” (J Nat Prod, 2004)
Converted amounts (≈) assume the structure as drawn. The source made the active and inactive calls. The rule behind the calls is not given here.

Tests used:
Format in all cases: functional, cell-based
KB = assay: Cytotoxicity against vincristine-sensitive human KB cells after 72 hrs by alamar blue assay
HL-60 = assay: Induction of human HL60 cell differentiation assessed as morphological change at 0.05 to 25 ug/ml by phase-contrast microscopy
KB/VJ300 [1] = assay: Reversal of vincristine resistance in human KB/VJ300 cells
KB/VJ300 [2] = assay: Cytotoxicity against vincristine-resistant human KB/VJ300 cells after 72 hrs by alamar blue assay
Homo sapiens = species: Homo sapiens; assay: Cytotoxicity against human KU-19-20 cells after 72 hrs by alamar blue assay

Structure (SMILES) | IC50 (KB) [µg/mL] | Activity (HL-60) | Activity (KB/VJ300 [1]) | Activity (KB/VJ300 [2]) | Activity (Homo sapiens)
C=C(C)[C@@H]1CC[C@]2(CO)CC[C@]3(C)[C@H](CC[C@@H]4[C@@]5(C)CC[C@H](O)C(C)(C)[C@@H]5CC[C@]43C)[C@@H]12 [BETULIN] | > 10 | inactive | inactive | – | –
C=C(C)[C@@H]1CC[C@]2(CO)CC[C@]3(C)[C@H](CC[C@@H]4[C@@]5(C)CC[C@H](OC(=O)/C=C/c6ccc(O)c(O)c6)C(C)(C)[C@@H]5CC[C@]43C)[C@@H]12 | > 10 | inactive | inactive | – | –
CC1(C)CC[C@]2(CO)CC[C@]3(C)C(=CC[C@@H]4[C@@]5(C)CC[C@H](O)C(C)(C)[C@@H]5CC[C@]43C)[C@@H]2C1 [ERYTHRODIOL] | 7 (≈ 15.8 µM) | inactive | inactive | Active | Active
CC1(C)CC[C@]2(CO)CC[C@]3(C)C(=CC[C@@H]4[C@@]5(C)CC[C@H](OC(=O)/C=C/c6ccc(O)c(O)c6)C(C)(C)[C@@H]5CC[C@]43C)[C@H]2C1 | > 10 | inactive | inactive | – | –
C[C@H]1[C@H](C)CC[C@]2(CO)CC[C@]3(C)C(=CC[C@@H]4[C@@]5(C)CC[C@H](OC(=O)/C=C/c6ccc(O)c(O)c6)C(C)(C)[C@@H]5CC[C@]43C)[C@H]12 | > 10 | inactive | inactive | – | –
C=C(C)[C@@H]1CC[C@]2(CO)CC[C@]3(C)[C@H](CC[C@@H]4[C@@]5(C)C[C@@H](O)C(=O)C(C)(C)[C@@H]5CC[C@]43C)[C@H]12 [MAYTEFOLIN A] | > 10 | inactive | inactive | – | –
